33 molecules from patent US7741354B2, “Inhibitors of glutaminyl cyclase” (Probiodrug AG, priority 2006, dated 2010) can be followed below.

SMILES strings stand for the structures.

hQC, sequence (Q16769 29-361): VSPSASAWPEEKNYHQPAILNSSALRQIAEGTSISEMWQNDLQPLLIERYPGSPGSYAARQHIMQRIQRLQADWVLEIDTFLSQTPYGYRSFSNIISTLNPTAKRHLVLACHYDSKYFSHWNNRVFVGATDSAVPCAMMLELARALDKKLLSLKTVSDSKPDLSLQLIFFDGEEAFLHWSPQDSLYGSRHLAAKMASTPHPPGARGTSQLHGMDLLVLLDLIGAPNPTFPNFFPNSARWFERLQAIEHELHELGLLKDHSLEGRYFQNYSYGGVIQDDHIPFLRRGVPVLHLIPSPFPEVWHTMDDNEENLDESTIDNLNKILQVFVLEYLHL

One test addresses hQC (Homo sapiens, UniProt Q16769). In words: Fluorometric (fluorescent) assay of hQC inhibition, IC50. The note with it: hQC inhibition; read-out: IC50. The class given is biochemical. As to the method:
All compounds were immediately tested regarding their activity as hQC inhibitors.
The purity of the compounds was determined by HPLC-MS. The IC50 value against hQC was measured using the fluorescent assay.
All measurements were performed with a BioAssay Reader HTS-7000Plus for microplates (Perkin Elmer) at 30° C. QC activity was evaluated fluorometrically using H-Gln-βNA. The samples consisted of 0.2 mM fluorogenic substrate, 0.25 U pyroglutamyl aminopeptidase (Unizyme, Horsholm, Denmark) in 0.2 M Tris/HCl, pH 8.0 containing 20 mM EDTA and an appropriately diluted aliquot of QC in a final volume of 250 μl. Excitation/emission wavelengths were 320/410 nm. The assay reactions were initiated by addition of glutaminyl cyclase. QC activity was determined from a standard curve of β-naphthylamine under assay conditions. One unit is defined as the amount of QC catalyzing the formation of 1 μmol pGlu-βNA from H-Gln-βNA per minute under the described conditions.
In a second fluorometric assay, QC was activity determined using H-Gln-AMC as substrate. Reactions were carried out at 30° C. utilizing the NOVOStar reader for microplates (BMG labtechnologies). The samples consisted of varying concentrations of the fluorogenic substrate, 0.1 U pyroglutamyl aminopeptidase (Qiagen) in 0.05 M Tris/HCl, pH 8.0 containing 5 mM EDTA and an appropriately diluted aliquot of QC in a final volume of 250 μl. Excitation/emission wavelengths were 380/460 nm. The assay reactions were initiated by addition of glutaminyl cyclase. QC activity was determined from a standard curve of 7-amino-4-methylcoumarin under assay conditions. The kinetic data were evaluated using GraFit sofware.
For inhibitor testing, the sample composition was the same as described above, except of the putative inhibitory compound added. For a rapid test of QC-inhibition, samples contained 4 mM of the respective inhibitor and a substrate concentration at 1 KM. For detailed investigations of the inhibition and determination of Ki-values, influence of the inhibitor on the auxiliary enzymes was investigated first. […] The inhibitory constant was evaluated by fitting the set of progress curves to the general equation for competitive inhibition using GraFit software.
For the molecule `CCOC(=O)C1CCCCC1n1nnnc1C(Nc1ccc2[nH]cnc2c1)c1c[nH]c2cc(C)ccc12` (stereo not drawn) [compound 196], the IC50 – broadly, the concentration at which inhibition is half-maximal – turned out to be 8.5 µM.

As for `CCOC(=O)C1CCCCC1n1nnnc1C(Nc1ccc2[nH]cnc2c1)c1cccc(OC)c1` (stereo not drawn) [compound 192], the IC50 was 8.5 µM.

For the molecule `CCOC(=O)C1CCCCC1n1nnnc1C(Nc1ccc2[nH]cnc2c1)c1ccc(C)c(C)c1` (stereo not drawn) [compound 155], the IC50 worked out at 4.9 µM.

Consider `CC1(C)OCC(Cn2nnnc2C(Nc2ccc3[nH]cnc3c2)c2cnc3ccccc3c2)O1` (stereo not drawn) [compound 156, (1H-Benzoimidazol-5-yl)-{[1-(2,2-dimethyl-[1,3]dioxolan-4-ylmethyl)-1H-tetrazol-5-yl]-quinolin-3-yl-methyl}-amine], for which the IC50 worked out at 4.9 µM.

With `CSc1ccc(C(Nc2ccc3[nH]cnc3c2)c2nnnn2CC2CCCO2)cc1` (stereo not drawn) [compound 140, (1H-Benzoimidazol-5-yl)-{(4-methylsulfanyl-phenyl)-[1-(tetrahydro-furan-2-ylmethyl)-1H-tetrazol-5-yl]-methyl}-amine], the IC50 was found to be 6.7 µM.

`CCOC(=O)C1CCCCC1n1nnnc1C(Nc1ccc2[nH]cnc2c1)c1cc(C)cc(C)c1` (stereo not drawn) [compound 157]: the IC50 amounted to 5.8 µM.

On to `Clc1ccc(Cn2nnnc2C(Nc2ccc3[nH]cnc3c2)c2ccc3c(c2)OCO3)cc1` (stereo not drawn) [compound 160, {Benzo[1,3]dioxol-5-yl-[1-(4-chloro-benzyl)-1H-tetrazol-5-yl]-methyl}-(1H-benzoimidazol-5-yl)-amine], for which the IC50 was 0.4 µM.

Consider `CCc1ccc(C(Nc2ccc3[nH]cnc3c2)c2nnnn2Cc2ccccc2)s1` (stereo not drawn) [compound 133, (1H-Benzoimidazol-5-yl)-[(1-benzyl-1H-tetrazol-5-yl)-(5-ethyl-thiophen-2-yl)-methyl]-amine], for which the IC50 came out at 3.1 µM.

With `CC1(C)OCC(Cn2nnnc2C(Nc2ccc3[nH]cnc3c2)c2ccc3c(c2)OCO3)O1` (stereo not drawn) [compound 138, {Benzo[1,3]dioxol-5-yl-[1-(2,2-dimethyl-[1,3]dioxolan-4-ylmethyl)-1H-tetrazol-5-yl]-methyl}-(1H-benzoimidazol-5-yl)-amine], the IC50 was 9.4 µM.

As to `c1nc2cc(NC(c3ccc(N4CCCC4)cc3)c3nnnn3CC3CCCO3)ccc2[nH]1` (stereo not drawn) [compound 134, (1H-Benzoimidazol-5-yl)-{(4-pyrolidin-1-yl-phenyl)-[1-(tetrahydro-furan-2-ylmethyl)-1H-tetrazol-5-yl]-methyl}-amine], the concentration for half-maximal inhibition (IC50) was 6.7 µM.

As for `COc1ccc(C(Nc2ccc3[nH]cnc3c2)c2nnnn2CC2CCCO2)cc1F` (stereo not drawn) [compound 163, (1H-Benzoimidazol-5-yl)-{(3-fluoro-4-methoxy-phenyl)-[1-(tetrahydro-furan-2-ylmethyl)-1H-tetrazol-5-yl]-methyl}-amine], the IC50 amounted to 8.5 µM.

Staying with this test, now noted: read-out: IC50.
On to `Cn1nnnc1C(NCCCn1ccnc1)c1ccc2[nH]ccc2c1` (stereo not drawn) [compound 30, (3-Imidazol-1-yl-propyl)-[(1H-indol-5-yl)-(1-methyl-1H-tetrazol-5-yl)-methyl]-amine], for which the IC50 is 4 µM.

In the case of `CC(C)(C)OC(=O)Cn1nnnc1C(Nc1ccc2[nH]cnc2c1)c1ccc(Br)cc1` (stereo not drawn) [compound 87, {5-[(1H-Benzoimidazol-5-ylamino)-(4-bromo-phenyl)-methyl]-tetrazol-1-yl}-acetic acid tert-butyl ester], the IC50 turned out to be 1.3 µM.

For `c1cn(CCCNC(c2ccc3[nH]ccc3c2)c2nnnn2C2CC2)cn1` (stereo not drawn) [compound 69, [(1-Cyclopropyl-1H-tetrazol-5-yl)-(1H-indol-5-yl)-methyl]-(3-imidazol-1-yl-propyl)-amine], the IC50 was found to be 4.9 µM.

Consider `COCCCn1nnnc1C(NCCCn1ccnc1)c1ccc2[nH]ccc2c1` (stereo not drawn) [compound 35, (3-Imidazol-1-yl-propyl)-{(1H-indol-5-yl)-[1-(3-methoxy-propyl)-1H-tetrazol-5-yl]-methyl}-amine], for which the IC50 came out at 7.6 µM.

As to `COc1cccc(C(Nc2ccc3[nH]cnc3c2)c2nnnn2CC2CCCO2)c1` (stereo not drawn) [compound 89, (1H-Benzoimidazol-5-yl)-{(3-methoxy-phenyl)-[1-(tetrahydro-furan-2-ylmethyl)-1H-tetrazol-5-yl]-methyl}-amine], the IC50 came to 7.6 µM.

For `c1ccc2nc(C(NCCCn3ccnc3)c3nnnn3C3CC3)ccc2c1` (stereo not drawn) [compound 70, [(1-Cyclopropyl-1H-tetrazol-5-yl)-quinolin-2-yl-methyl]-(3-imidazol-1-yl-propyl)-amine], the IC50 is 5.8 µM.

Regarding `COc1ncc(C(NCCCn2ccnc2)c2nnnn2C(C)(C)C)c(OC)n1` (stereo not drawn) [compound 62, [(1-tert-Butyl-1H-tetrazol-5-yl)-(2,4-dimethoxy-pyrimidin-5-yl)-methyl]-(3-imidazol-1-yl-propyl)-amine], the concentration for half-maximal inhibition (IC50) was found to be 8.5 µM.

As for `C=CCn1nnnc1C(NCCCn1ccnc1)c1ccc2cccc(O)c2n1` (stereo not drawn) [compound 45, 2-[(1-Allyl-1H-tetrazol-5-yl)-(3-imidazol-1-yl-propylamino)-methyl]-quinolin-8-ol], the IC50 came to 4 µM.

Regarding `Cc1ccc2c(C(Nc3ccc4[nH]cnc4c3)c3nnnn3CC3CCCO3)c[nH]c2c1` (stereo not drawn) [compound 80, (1H-Benzoimidazol-5-yl)-{(6-methyl-1H-indol-3-yl)-[1-(tetrahydro-furan-2-ylmethyl)-1H-tetrazol-5-yl]-methyl}-amine], the IC50 turned out to be 6.7 µM.

`COC(=O)Cn1nnnc1C(NCCCn1ccnc1)[C@@H]1CCC=CO1` (stereo partly drawn) [compound 56, {5-[(S)-3,4-Dihydro-2H-pyran-2-yl-(3-imidazol-1-yl-propylamino)-methyl]-tetrazol-1-yl}-acetic methyl ester]: the IC50 stood at 4.9 µM.

For the molecule `CCCCn1nnnc1C(NCCCn1ccnc1)c1cc(C)ccc1O` (stereo not drawn) [compound 19, 2[(1-Butyl-1H-tetrazol-5-yl)-(3-imidazol-1-yl-propylamino)-mehtyl]-4-methyl-phenol], the IC50 was 2.2 µM.

`COC(=O)Cn1nnnc1C(NCCCn1ccnc1)C1CC1` (stereo not drawn) [compound 57, {5-[Cyclopropyl-(3-imidazol-1-yl-propylamino)-methyl]-tetrazol-1-yl}-acetic methyl ester]: the IC50 stood at 0.4 µM.

`COCCCn1nnnc1C(NCCCn1ccnc1)c1ccc(Cl)c(Cl)c1` (stereo not drawn) [compound 32, {(3,4-Dichloro-phenyl)-[1-(3-methoxy-propyl)-1H-tetrazol-5-yl]-methyl}-(3-imidazol-1-yl-propyl)-amine]: the IC50 was found to be 7.6 µM.

Take `Clc1ccccc1Cn1nnnc1C(Nc1ccc2[nH]cnc2c1)c1cc2ccccc2o1` (stereo not drawn) [compound 90, {Benzofuran-2-yl-[1-(2-chloro-benzyl)-1H-tetrazol-5-yl]-methyl}-(1H-benzoimidazol-5-yl)-amine]: the IC50 came out at 22.2 µM.

As to `Cc1cc(C)c(C(NCCCn2ccnc2)c2nnnn2C[C@@H]2CCCO2)cc1C` (stereo partly drawn) [compound 17, (3-Imidazol-1-yl-propyl)-[{1-[(S)-1-(tetrahydro-furan-2-yl)methyl]-1H-tetrazol-5-yl}-(2,4,5-trimethyl-phenyl)-methyl]-amine], the IC50 was found to be 4 µM.

With `COCCCn1nnnc1C(NCCCn1ccnc1)c1ccc2ccccc2n1` (stereo not drawn) [compound 36, (3-Imidazol-1-yl-propyl)-{[1-(3-methoxy-propyl)-1H-tetrazol-5-yl]-quinolin-2-yl-methyl}-amine], the half-inhibitory concentration (IC50) was 3.1 µM.

Regarding `COCCCn1nnnc1C(NCCCn1ccnc1)c1cc(O)ccc1C` (stereo not drawn) [compound 33, 3-{(3-Imidazol-1-yl-propylamino)-[1-(3-methoxy-propyl)-1H-tetrazol-5-yl]-methyl}-4-methyl-phenol], the IC50 stood at 4 µM.

Turning to `Cc1ccc(O)c(C(NCCCn2ccnc2)c2nnnn2C(C)(C)C)c1` (stereo not drawn) [compound 59, 2-[(1-tert-Butyl-1H-tetrazol-5-yl)-(3-imidazol-1-yl-propylamino)-methyl]-4-methyl-phenol], the IC50 turned out to be 1.3 µM.

Regarding `COCCn1nnnc1C(NCCCn1ccnc1)c1ccc2ccccc2n1` (stereo not drawn) [compound 42, (3-Imidazol-1-yl-propyl)-{[1-(2-methoxy-ethyl)-1H-tetrazol-5-yl]-quinolin-2-yl-methyl}-amine], the concentration for half-maximal inhibition (IC50) stood at 5.8 µM.

As to `COCCn1nnnc1C(NCCCn1ccnc1)c1ccc2[nH]ccc2c1` (stereo not drawn) [compound 41, (3-Imidazol-1-yl-propyl)-{(1H-indol-5-yl)-[1-(2-methoxy-ethyl)-1H-tetrazol-5-yl]-methyl}-amine], the 50% inhibitory concentration (IC50) was found to be 4.9 µM.

On to `Clc1ccc(Cn2nnnc2C(NCCCn2ccnc2)c2ccc3ccccc3n2)cc1` (stereo not drawn) [compound 7, {[1-(4-Chloro-benzyl)-1H-tetrazol-5-yl]-quinolin-2-yl-methyl}-(3-imidazol-1-yl-propyl)-amine], for which the IC50 was found to be 1.3 µM.

Take `C=CCn1nnnc1C(NCCCn1ccnc1)c1cc(C)c(C)cc1C` (stereo not drawn) [compound 48, [(1-Allyl-1H-tetrazol-5-yl)-(2,4,5-trimethyl-phenyl)-methyl]-(3-imidazol-1-yl-propyl)-amine]: the IC50 was determined as 9.4 µM.
